Source: patent US8338465B2, “Cyclic carboxylic acid rhodanine derivatives for the treatment and prevention of tuberculosis” (priority 2006, dated 2012)

target: T1, dihydrolipoamide acyltransferase (DlaT) (Mycobacterium tuberculosis, UniProt P9WIS7); test: DlaT inhibition (Dlat IC50); DTNB peroxidase assay with Lpd, DlaT and AhpD; type: biochemical; settings: Table 1, Compounds A1 to A294; read-out: Dlat IC50 category
T1 sequence (P9WIS7 1-553): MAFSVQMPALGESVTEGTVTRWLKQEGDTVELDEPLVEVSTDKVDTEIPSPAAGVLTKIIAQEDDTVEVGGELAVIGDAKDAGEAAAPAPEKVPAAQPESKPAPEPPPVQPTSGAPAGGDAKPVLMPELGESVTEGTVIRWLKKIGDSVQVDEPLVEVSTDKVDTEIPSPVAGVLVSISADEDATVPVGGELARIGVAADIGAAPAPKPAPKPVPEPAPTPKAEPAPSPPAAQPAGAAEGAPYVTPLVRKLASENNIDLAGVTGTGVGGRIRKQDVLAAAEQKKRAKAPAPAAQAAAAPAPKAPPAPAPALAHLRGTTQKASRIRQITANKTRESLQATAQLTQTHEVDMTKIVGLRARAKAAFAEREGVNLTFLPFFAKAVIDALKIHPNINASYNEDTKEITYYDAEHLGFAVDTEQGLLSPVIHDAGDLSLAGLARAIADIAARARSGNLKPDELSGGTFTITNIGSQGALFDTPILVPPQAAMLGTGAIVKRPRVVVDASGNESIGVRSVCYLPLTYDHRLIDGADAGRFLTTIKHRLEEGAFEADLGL

SMILES | IC50
O=C(O)c1cccc(N2C(=O)C(=Cc3ccc(-c4ccccc4Cl)s3)SC2=S)c1 [Compound A189] | < 10 µM
O=C(O)c1ccc(F)c(N2C(=O)C(=Cc3ccc(-c4ccccc4Cl)s3)SC2=S)c1 [Compound A190] | < 10 µM
CN(C)c1ccc(-c2ccc(C=C3SC(=S)N(c4cc(C(=O)O)ccc4F)C3=O)o2)cc1 [Compound A191] | < 10 µM
O=C(O)c1cccc(N2C(=O)C(=Cc3ccccc3-c3ccccc3OCc3ccccc3Cl)SC2=S)c1 [Compound A192] | 11 to 40 µM
O=C(O)c1cccc(N2C(=O)C(=Cc3ccc(-c4ccccc4Oc4ccccc4)o3)SC2=S)c1 [Compound A193] | < 10 µM
O=C(O)c1ccc(F)c(N2C(=O)C(=Cc3ccc(-c4ccccc4Oc4ccccc4)o3)SC2=S)c1 [Compound A194] | < 10 µM
O=C(O)c1cccc(N2C(=O)C(=Cc3ccc(-c4ccccc4F)s3)SC2=S)c1 [Compound A195] | 11 to 40 µM
O=C(O)c1cccc(N2C(=O)C(=Cc3ccc(-c4ccccc4F)s3)SC2=S)c1 [Compound A196] | < 10 µM
O=C(O)c1ccc(F)c(N2C(=O)C(=Cc3ccccc3-c3ccccc3OCc3ccccc3Cl)SC2=S)c1 [Compound A197] | < 10 µM
Cc1cccc(C)c1-c1ccc(C=C2SC(=S)N(c3cccc(C(=O)O)c3)C2=O)o1 [Compound A198] | < 10 µM
O=C(O)c1cccc(N2C(=O)C(=Cc3ccc(-c4ccc(C(F)(F)F)cc4)o3)SC2=S)c1 [Compound A200] | < 10 µM
O=C(O)c1ccc(F)c(N2C(=O)C(=Cc3ccc(-c4ccc(C(F)(F)F)cc4)o3)SC2=S)c1 [Compound A201] | < 10 µM
O=C(O)c1cccc(N2C(=O)C(=Cc3ccc(-c4cccc(-c5ccccc5)c4)o3)SC2=S)c1 [Compound A202] | < 10 µM
O=C(O)c1ccc(F)c(N2C(=O)C(=Cc3ccc(-c4cccc(-c5ccccc5)c4)o3)SC2=S)c1 [Compound A203] | < 10 µM
CC(=O)Nc1ccc(-c2ccc(C=C3SC(=S)N(c4cccc(C(=O)O)c4)C3=O)o2)cc1 [Compound A204] | < 10 µM
CC(=O)Nc1ccc(-c2ccc(C=C3SC(=S)N(c4cc(C(=O)O)ccc4F)C3=O)o2)cc1 [Compound A205] | < 10 µM
CC(=O)c1ccc(-c2ccc(C=C3SC(=S)N(c4cccc(C(=O)O)c4)C3=O)o2)cc1 [Compound A206] | < 10 µM
CC(=O)c1ccc(-c2ccc(C=C3SC(=S)N(c4cc(C(=O)O)ccc4F)C3=O)o2)cc1 [Compound A207] | < 10 µM
O=C(O)c1ccc(F)c(N2C(=O)C(=Cc3ccc(-c4ccccc4F)o3)SC2=S)c1 [Compound A208] | 11 to 40 µM
O=C(O)c1cccc(N2C(=O)C(=Cc3ccc(-c4cccc(CO)c4)o3)SC2=S)c1 [Compound A209] | < 10 µM
O=C(O)c1ccc(F)c(N2C(=O)C(=Cc3ccc(-c4cccc(CO)c4)o3)SC2=S)c1 [Compound A210] | < 10 µM
O=C(O)c1cccc(N2C(=O)C(=Cc3ccc(-c4ccc(F)cc4)o3)SC2=S)c1 [Compound A211] | < 10 µM
O=C(O)c1ccc(F)c(N2C(=O)C(=Cc3ccc(-c4ccc(F)cc4)o3)SC2=S)c1 [Compound A212] | < 10 µM

SMILES | IC50
CCOc1ccc(-c2ccc(C=C3SC(=S)N(c4cccc(C(=O)O)c4)C3=O)o2)cc1 [Compound A217] | 11 to 40 µM
CCOc1ccc(-c2ccc(C=C3SC(=S)N(c4cc(C(=O)O)ccc4F)C3=O)o2)cc1 [Compound A218] | < 10 µM
O=C(O)c1cccc(N2C(=O)C(=Cc3ccc(-c4ccc(OCc5ccccc5)cc4)o3)SC2=S)c1 [Compound A219] | 11 to 40 µM
O=C(O)c1ccc(F)c(N2C(=O)C(=Cc3ccc(-c4ccc(OCc5ccccc5)cc4)o3)SC2=S)c1 [Compound A220] | 11 to 40 µM
O=C(O)c1cc(N2C(=O)C(=Cc3ccc(-c4ccccc4Cl)o3)SC2=S)cc(C(F)(F)F)c1 [Compound A221] | 11 to 40 µM
O=C(O)c1cc(N2C(=O)C(=Cc3ccc(-c4ccccc4F)o3)SC2=S)cc(C(F)(F)F)c1 [Compound A222] | < 10 µM
O=C(O)c1cc(N2C(=O)C(=Cc3ccc(-c4ccc(Cl)cc4)o3)SC2=S)cc(C(F)(F)F)c1 [Compound A223] | 11 to 40 µM
Cc1ccc(-c2ccc(C=C3SC(=S)N(c4cc(C(=O)O)cc(C(F)(F)F)c4)C3=O)o2)cc1 [Compound A224] | < 10 µM
CCc1ccc(-c2ccc(C=C3SC(=S)N(c4cc(C(=O)O)cc(C(F)(F)F)c4)C3=O)o2)cc1 [Compound A225] | 11 to 40 µM
CCCCOc1ccc(-c2ccc(C=C3SC(=S)N(c4cccc(C(=O)O)c4)C3=O)o2)cc1 [Compound A226] | > 41 µM
CCCCOc1ccc(-c2ccc(C=C3SC(=S)N(c4cc(C(=O)O)ccc4F)C3=O)o2)cc1 [Compound A227] | 11 to 40 µM
CS(=O)(=O)c1ccc(-c2ccc(C=C3SC(=S)N(c4cccc(C(=O)O)c4)C3=O)o2)cc1 [Compound A228] | < 10 µM
CS(=O)(=O)c1ccc(-c2ccc(C=C3SC(=S)N(c4cc(C(=O)O)ccc4F)C3=O)o2)cc1 [Compound A229] | 11 to 40 µM
O=C(O)c1cc(C(=O)O)cc(N2C(=O)C(=Cc3ccc(-c4ccccc4Cl)o3)SC2=S)c1 [Compound A230] | < 10 µM
O=C(O)c1cc(C(=O)O)cc(N2C(=O)C(=Cc3ccc(-c4ccccc4F)o3)SC2=S)c1 [Compound A231] | > 41 µM
O=C(O)c1cc(C(=O)O)cc(N2C(=O)C(=Cc3ccc(-c4ccc(Cl)cc4)o3)SC2=S)c1 [Compound A232] | 11 to 40 µM
CCc1ccc(-c2ccc(C=C3SC(=S)N(c4cc(C(=O)O)cc(C(=O)O)c4)C3=O)o2)cc1 [Compound A233] | < 10 µM
Cc1ccccc1-c1ccc(C=C2SC(=S)N(c3cc(C(=O)O)cc(C(F)(F)F)c3)C2=O)o1 [Compound A234] | < 10 µM
Cc1ccccc1-c1ccc(C=C2SC(=S)N(c3cc(C(=O)O)cc(C(=O)O)c3)C2=O)o1 [Compound A235] | < 10 µM
CSc1cccc(-c2ccc(C=C3SC(=S)N(c4cccc(C(=O)O)c4)C3=O)o2)c1 [Compound A236] | < 10 µM
CSc1cccc(-c2ccc(C=C3SC(=S)N(c4cc(C(=O)O)ccc4F)C3=O)o2)c1 [Compound A237] | < 10 µM
CSc1ccc(-c2ccc(C=C3SC(=S)N(c4cccc(C(=O)O)c4)C3=O)o2)cc1 [Compound A238] | < 10 µM
CSc1ccc(-c2ccc(C=C3SC(=S)N(c4cc(C(=O)O)ccc4F)C3=O)o2)cc1 [Compound A239] | < 10 µM

SMILES | IC50
CC(C)Oc1ccc(-c2ccc(C=C3SC(=S)N(c4cccc(C(=O)O)c4)C3=O)o2)cc1 [Compound A240] | < 10 µM
CC(C)Oc1ccc(-c2ccc(C=C3SC(=S)N(c4cc(C(=O)O)ccc4F)C3=O)o2)cc1 [Compound A241] | < 10 µM
Cc1ccc(-c2cccc(C=C3SC(=S)N(c4cccc(C(=O)O)c4)C3=O)c2)cc1 [Compound A242] | 11 to 40 µM
Cc1ccc(-c2cccc(C=C3SC(=S)N(c4cc(C(=O)O)ccc4F)C3=O)c2)cc1 [Compound A243] | < 10 µM
O=C(O)c1cccc(N2C(=O)C(=Cc3ccc(-c4ccccc4-c4ccccc4)o3)SC2=S)c1 [Compound A244] | < 10 µM
O=C(O)c1ccc(F)c(N2C(=O)C(=Cc3ccc(-c4ccccc4-c4ccccc4)o3)SC2=S)c1 [Compound A245] | < 10 µM
Cc1ccc(-c2ccc(C=C3SC(=S)N(c4cccc(C(=O)O)c4)C3=O)cc2)cc1 [Compound A246] | < 10 µM
Cc1ccc(-c2ccc(C=C3SC(=S)N(c4cc(C(=O)O)ccc4F)C3=O)cc2)cc1 [Compound A247] | 11 to 40 µM
Cc1ccc(-c2ccc(C=C3SC(=S)N(c4cc(C(=O)O)cc(C(F)(F)F)c4)C3=O)cc2)cc1 [Compound A248] | < 10 µM
CCc1ccccc1-c1ccc(C=C2SC(=S)N(c3cccc(C(=O)O)c3)C2=O)o1 [Compound A249] | < 10 µM
CCc1ccccc1-c1ccc(C=C2SC(=S)N(c3cc(C(=O)O)ccc3F)C2=O)o1 [Compound A250] | < 10 µM
O=C(O)c1cccc(N2C(=O)C(=Cc3nc(-c4ccccc4)cs3)SC2=S)c1 [Compound A251] | 11 to 40 µM
O=C(O)c1ccc(F)c(N2C(=O)C(=Cc3nc(-c4ccccc4)cs3)SC2=S)c1 [Compound A252] | 11 to 40 µM
COc1ccc(C)cc1-c1ccc(C=C2SC(=S)N(c3cccc(C(=O)O)c3)C2=O)o1 [Compound A253] | < 10 µM
COc1ccc(C)cc1-c1ccc(C=C2SC(=S)N(c3cc(C(=O)O)ccc3F)C2=O)o1 [Compound A254] | < 10 µM
O=C(O)c1cc(N2C(=O)C(=Cc3ccc(-c4ccccc4Cl)o3)SC2=S)ccc1F [Compound A255] | 11 to 40 µM
O=C(O)c1cc(N2C(=O)C(=Cc3ccc(-c4ccccc4F)o3)SC2=S)ccc1F [Compound A256] | 11 to 40 µM
Cc1ccccc1-c1ccc(C=C2SC(=S)N(c3ccc(F)c(C(=O)O)c3)C2=O)o1 [Compound A257] | 11 to 40 µM
O=C(O)c1cc(N2C(=O)C(=Cc3ccc(-c4ccc(Cl)cc4)o3)SC2=S)ccc1F [Compound A258] | < 10 µM
O=C(O)c1cc(N2C(=O)C(=Cc3ccc(-c4ccc(F)cc4)o3)SC2=S)ccc1F [Compound A259] | 11 to 40 µM
Cc1ccc(-c2ccc(C=C3SC(=S)N(c4ccc(F)c(C(=O)O)c4)C3=O)o2)cc1 [Compound A260] | < 10 µM
CC(=O)Nc1ccc(-c2ccc(C=C3SC(=S)N(c4cc(C(=O)O)cc(C(F)(F)F)c4)C3=O)o2)cc1 [Compound A261] | < 10 µM
